The test system of one data set is rats. The experiment in a line: in vivo animal observation after overdose. Details: species or system rat.
Data set [1] deals with muscarinic cholinergic receptor. The conditions noted are these: results of pharmacological studies.
Another data set concerns clinical subjects. The experiment in a line: clinical observation of pupil response. Particulars: pupilary dialation was expected.
Data set [2] is described as follows: detection of radiolabelled compound in saliva. It counts as in vivo. As to the method:
For example, in the treatment of adult humans, dosages of from about 0.25 to 50 mg, preferably from 1 to 30 mg, and most preferably 1 to 20 mg per day may be used. A once a day dosage is normally sufficient, although divided doses may be administered. For treatment of cognitive dysfunction, a dose range of from 1 to 30 mg, preferably 1 to 20 mg per day is suitable.

For `Cc1cc2c(s1)Nc1ccccc1N=C2N1CCN(C)CC1`, the “observation in rats exposed to an overdose” value with rats was “significant salivation”. The “muscarinic cholinergic receptor activity” value in data set [1] is “has muscarinic cholinergic receptor activity”. Moreover, in the data set with clinical subjects, the “pupil response in clinical subjects” value is reported as “pupilary constriction”.
Take `Cc1cc2c(s1)Nc1ccccc1N=C2N1CCN(C)CC1` [2-methyl-4-(4-methyl-1-piperazinyl)-10H-thieno-[2,3-b][1,5]benzodiazepine]: in data set [2], the detection in saliva entry is “can be detected in the saliva”.

Values taken from patent publication US6432943B1, “Method for treating sexual dysfunction” (Eli Lilly and Company, priority 1997, dated 2002).
